According to US4665092A, “Styrene derivatives, their use as antiallergic agents and intemediate epoxides for their synthesis” (Ortho Pharmaceutical Corporation, priority 1985, dated 1987):

Experiment: Anti-allergic / anti-inflammatory activity of the invention compounds; the test is not specified (5-lipoxygenase inhibition in RBL-1 cells and active lung anaphylaxis in guinea-pigs are described)
Conditions: no IC50 or percent inhibition printed
Procedure: The compounds of the invention of formulae (I) and (II) may be used as pharmaceutical agents in the treatment of inflammation and/or allergic reactions. […] Such testing procedures were carried out on compounds of the invention as described below:
Rat basophilic leukemia cells (RBL-1) were grown in Eagle's Minimal Essential Medium containing 10% fetal calf serum, 5% calf serum, 1% glutamine and 50 mg/L gentamycin and were maintained at 37° C. in a atmosphere containing 5% CO2. Exponentially growing cells were harvested by centrifugation at 400xg for 10 minutes at 4° C. and were washed once with Dulbecco's phosphate buffered saline containing 0.87 mM CaCl2. The cells were resuspended in the same buffer at a concentration of 1.85×10^7 cells/ml. […]
In order to isolate the Δ5 -lipoxygenase product ^14 C-5-HETE that was formed from arachidonic acid, each assay tube was extracted once with 6 volumes of anhydrous diethyl ether. In most assays, the recovery of product was estimated by determining the total amount of radioactivity recovered after extraction. In the remaining assays the recovery of ^14 C-5-HETE was monitored by addition of trace quantities of ^3 H-5-HETE (New England Nuclear) prior to extraction. […] The amount of ^14 C-5-HETE presented was quantitated by liquid scintillation counting in Aquasol II (New England Nuclear) and corrected for recovery. […]

Structure (SMILES): O[C@@H](CCCCOC1CCCCO1)[C@@H](/C=C/c1ccccc1)Sc1ccccc1 (stereo partly drawn) [Example 1g, (3R,4S)-4-Hydroxy-1-phenyl-3-phenylthio-8-(2-tetrahydropyranyloxy)-1(E)-octene]
- activity of the compound (statement in words, figures not given): Particularly active

Structure (SMILES): CC(C)=CCC[C@](C)(O)[C@@H](/C=C\C=C\c1ccccc1)Sc1ccccc1 [Example 7, (5R,6S) 1-Phenyl-5-phenylthio-6-hydroxy-6,10-dimethylundeca-(1E,3Z,9)-triene Monoh ydrate]
- activity of the compound (statement in words, figures not given): Particularly active
